{"source": "patent US9067897B2", "about": "“2,4-Diaminoquinazolines for spinal muscular atrophy” (Families of Spinal Muscular Atrophy, priority 2004, dated 2015)", "note": "Counter-ions that a name gives are not always drawn."}
{"test_system": "SMN", "experiment": "not given", "conditions": "cited from earlier work"}
{"compound": "CCCC(=O)[O-].[Na+]", "note": "[sodium butyrate]", "SMN expression": "increase SMN expession"}
{"compound": "phenylbuytreate", "SMN expression": "increase SMN expession"}
{"test_system": "SMN2 promoter", "experiment": "SMN2 promoter assay (β-lactamase reporter) in NSC-34 cells", "assay_type": "cell-based, mouse", "conditions": "Mus musculus, SMN2 promoter driving β-lactamase, 12 point dose curve, average of 3-6 dose curve experiments", "units": {"EC50": "nM"}}
{"compound": "Nc1nc(N)c2c(OCC(O)c3ccc(C(F)(F)F)cc3)cccc2n1", "note": "(stereo not drawn) [Example 163, 2-(2,4-Diaminoquinazolin-5-yloxy)-1-(4-trifluoromethylphenyl)ethanol]", "EC50": "< 1000"}
{"compound": "Nc1nc(N)c2c(OC(CO)c3ccc(Cl)cc3)cccc2n1", "note": "(stereo not drawn) [Example 164, 2-(4-Chlorophenyl)-2-(2,4-diaminoquinazolin-5-yloxy)ethanol hydrochloride]", "EC50": "< 1000"}
{"compound": "COC(COc1cccc2nc(N)nc(N)c12)c1ccc(Cl)cc1", "note": "(stereo not drawn) [Example 165, 5-[2-(4-Chlorophenyl)-2-methoxyethoxy]quinazoline-2,4-diamine]", "EC50": "< 1000"}
{"compound": "COCC(Oc1cccc2nc(N)nc(N)c12)c1ccccc1", "note": "(stereo not drawn) [Example 166, 5-(2-Methoxy-1-phenylethoxy)quinazoline-2,4-diamine]", "EC50": "< 1000"}
{"compound": "CC(CC(O)(c1ccc(Cl)cc1)c1ccc(Cl)cc1)Oc1cccc2nc(N)nc(N)c12", "note": "(stereo not drawn) [Example 168, 1,1-Bis-(4-chlorophenyl)-3-(2,4-diaminoquinazolin-5-yloxy)butan-1-ol]", "EC50": "1000 to 5000"}
{"compound": "COC(COc1cccc2nc(N)nc(N)c12)c1ccc2c(c1)OCO2", "note": "(stereo not drawn) [Example 169, 5-(2-Benzo[1,3]dioxol-5-yl-2-methoxyethoxy)quinazoline-2,4-diamine hydrochloride]", "EC50": "< 1000"}
{"compound": "Nc1nc(N)c2c(OC(CO)c3ccc4c(c3)OCO4)cccc2n1", "note": "(stereo not drawn) [Example 170, 2-Benzo[1,3]dioxol-5-yl-2-(2,4-diaminoquinazolin-5-yloxy)ethanol hydrochloride]", "EC50": "< 1000"}
